Measurements taken from publication PMC11645656, “MRGPRX4 mediates phospho-drug associated pruritus in a humanized mouse model” (Science translational medicine, 2024).
Where “and” joins values, the source holds several entries; their conditions need not be identical. Equal values may be shown once.

Tests used:
Format in all cases: cell-based
MRGPRX4 WT (S83) = MRGPRX4 WT (S83) (Homo sapiens, UniProt Q96LA9, L83S); experiment: PRESTO-Tango β-arrestin recruitment assay, HTLA cells stably expressing WT (S83) MRGPRX4; set-up: expressed in transfected cells; details: HTLA::MRGPRX4
Sequence of MRGPRX4 WT (S83) (Q96LA9 whole entry L83S, the tested form may be a part): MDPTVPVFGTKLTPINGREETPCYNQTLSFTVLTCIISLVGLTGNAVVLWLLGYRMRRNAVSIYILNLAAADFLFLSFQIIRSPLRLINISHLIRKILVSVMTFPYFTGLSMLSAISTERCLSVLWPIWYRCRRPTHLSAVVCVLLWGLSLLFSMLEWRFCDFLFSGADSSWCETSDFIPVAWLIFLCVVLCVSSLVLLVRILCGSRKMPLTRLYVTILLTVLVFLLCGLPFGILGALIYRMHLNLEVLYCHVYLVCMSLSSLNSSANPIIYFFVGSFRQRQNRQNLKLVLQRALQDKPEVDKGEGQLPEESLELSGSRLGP
Procedure: HTLA cells, a cell line derived from HEK293 and engineered to stably express a tTA-dependent luciferase reporter and a β-arrestin2-TEV fusion gene, were generously provided by Richard Axel's laboratory. HTLA cells were cultured in growth medium containing 2 μg/ml puromycin and 100 μg/ml hygromycin B in 5% CO2 at 37 °C. Stably MRGPRX4-expressing HTLA cells were generated by transfecting pcDNA3.1(+)-Zeo containing MRGPRX4-Tango construct (either with WT or S83L mutant sequence) into HTLA cells with Lipofectamine 3000 and selecting the successful transfected clones with Zeocin.
HTLA cells stably expressing either WT or S83L MRGPRX4 were seeded in PDL-coated 96-well white clear bottom cell culture plates with DMEM containing 10% FBS, at a density of 35,000 cells per well and were allowed to attach to the bottom of the wells overnight. The next day, growth medium was replaced with 100 μl of serum-free medium containing the tested drugs at various concentrations, and the cells were then incubated at 37°C for 24 h. On the following day, media with drug solutions was removed and 50 μl per well of Bright-Glo™ Reagent from Bright-Glo™ Luciferase Assay System (Promega) was loaded. The plate was incubated at room temperature in the dark for 5 min, and the relative luminescence units were measured using the Flexstation-3 instrument with SoftMax®Pro 7.1 software (Molecular Devices). Dose response curves and EC50s were analyzed as described above.
Data are from at least two independent experiments, each performed in
triplicate, and are depicted as mean ± SEM.
arrestin2-TEV fusion gene and a tTA -dependent luciferase reporter.

HTLA cells = experiment: PRESTO-Tango β-arrestin recruitment assay, parental HTLA cells without MRGPRX4 (control, fig. S1)
Description: Supplement NIHMS2038790-supplement-table.xlsx, sheet "fig. S1" | column: Concentration (M)

MRGPRX4 (S83) = molecular target: T1, MRGPRX4 (S83) (Homo sapiens, UniProt Q96LA9, L83S); experiment: EC50 determination, intracellular calcium mobilization in MRGPRX4 stably expressed HEK293 cells (FLIPR Calcium 5, Flexstation-3); set-up: Fig. 1D dose-response, calcium mobilization response (individual replicate) / calcium mobilization response (Fig. 1D dose-response raw data): unit not given here
T1 construct: expressed in transfected cells
T1 sequence (Q96LA9 whole entry L83S): as the sequence (Q96LA9 whole entry L83S, the tested form may be a part) above
Procedure: HEK293 cells and MRGPRX4 stably expressed HEK293 cells were seeded in 100 μl culture media on 96-well plates at a density of 40,000 cells per well and incubated overnight. The next day, the media were replaced with a dye-loading solution from the FLIPR Calcium 5 assay kit (Molecular Devices), diluted in Hank's Balanced Salt Solution (HBSS) with 20 mM HEPES, pH 7.4. After 1 h of incubation at 37°C, cells were allowed to recover for 10 min in the dark at room temperature prior to performing intracellular calcium mobilization assay in a Flexstation-3 instrument with SoftMax®Pro 7.1 software (Molecular Devices). Serial concentrations of tested drugs were prepared in HBSS/HEPES solution at 3X concentration. […] Compounds were tested in triplicates and the signals were averaged. Responses were determined by subtracting the minimum signal (at the baseline before adding the drug) from the maximum signal (obtained after drug stimulation). Four-parameter logistic (4PL) curve fit was used to plot the dose-response curves. […] Both dose-response curve fitting and EC50s calculation are computed with GraphPad Prism software (version: 6.o or above).

## C[C@@H]1C[C@H]2[C@@H]3CCC4=CC(=O)C=C[C@]4(C)[C@@]3(F)[C@@H](O)C[C@]2(C)[C@@]1(O)C(=O)CO [Dexamethasone]
MRGPRX4 WT (S83); concentration 9.77e-7 M
  PRESTO-Tango response (fig. S1), single replicate: 0.05502 and 0.04613 and 0.0583 and 0.05727 and 0.00632 and 0.09586
MRGPRX4 WT (S83); concentration 1.95e-6 M
  PRESTO-Tango response (fig. S1), single replicate: 0.08603 and 0.06619 and 0.1004 and 0.1201 and 0.05846 and 0.07406
MRGPRX4 WT (S83); concentration 0.000004 M
  PRESTO-Tango response (fig. S1), single replicate: 0.0533 and 0.07958 and 0.05713 and 0.07013 and 0.1112 and 0.008646
MRGPRX4 WT (S83); concentration 0.000008 M
  PRESTO-Tango response (fig. S1), single replicate: 0.06153 and 0.0682 and 0.07104 and 0.08136 and 0.03922 and 0.08019
MRGPRX4 WT (S83); concentration 3.13e-5 M
  PRESTO-Tango response (fig. S1), single replicate: 0.0689 and 0.04671 and 0.04196 and 0.06207 and 0.03885 and 0.05666
MRGPRX4 WT (S83); concentration 6.25e-5 M
  PRESTO-Tango response (fig. S1), single replicate: 0.03211 and 0.04959 and 0.04067 and 0.02014 and 0.05174 and 0.05049
MRGPRX4 WT (S83); concentration 0.00025 M
  PRESTO-Tango response (fig. S1), single replicate: 0.07947 and 0.03843 and 0.03927 and 0.03864 and 0.06682 and 0.0517
MRGPRX4 WT (S83); concentration 0.0005 M
  PRESTO-Tango response (fig. S1), single replicate: 0.06213 and 0.03131 and 0.04202 and 0.04862 and 0.02625 and 0.06059
MRGPRX4 WT (S83); concentration 0.001 M
  PRESTO-Tango response (fig. S1), single replicate: 0.05095 and 0.05745 and 0.03908 and 0.09388 and 0.02339 and 0.03021
HTLA cells; concentration 9.77e-7 M
  PRESTO-Tango response (fig. S1), single replicate: 0.004822 and 0.002858 and 0.001836 and 0.006042 and 0.003642 and 0.003121
HTLA cells; concentration 1.95e-6 M
  PRESTO-Tango response (fig. S1), single replicate: 0.004669 and 0.01135 and 0.007279 and 0.01201 and 0.004751 and 0.007109
HTLA cells; concentration 0.000004 M
  PRESTO-Tango response (fig. S1), single replicate: 0.004146 and 0.005626 and 0.002299 and 0.005155 and 0.007205 and 0.002627
HTLA cells; concentration 0.000008 M
  PRESTO-Tango response (fig. S1), single replicate: 0.006851 and 0.005435 and 0.002472 and 0.006078 and 0.009879 and 0.006343
HTLA cells; concentration 3.13e-5 M
  PRESTO-Tango response (fig. S1), single replicate: 0.004236 and 0.003572 and 0.004837 and 0.002213 and 0.004661 and 0.004714
HTLA cells; concentration 6.25e-5 M
  PRESTO-Tango response (fig. S1), single replicate: 0.00398 and 0.007183 and 0.008495 and 0.006729 and 0.001521 and 0.004353
HTLA cells; concentration 0.00025 M
  PRESTO-Tango response (fig. S1), single replicate: 0.001595 and 0.004197 and 0.004126 and 0.004268 and 0.000295 and 0.005991
HTLA cells; concentration 0.0005 M
  PRESTO-Tango response (fig. S1), single replicate: 0.002985 and 0.003661 and 0.004712 and 0.003009 and 0.002249 and 0.001042
HTLA cells; concentration 0.001 M
  PRESTO-Tango response (fig. S1), single replicate: 0.002207 and 0.002577 and 0.002201 and 0.000402 and 0.004573 and 0.000993
MRGPRX4 (S83); Concentration 9.76563e-7 M
  Fig. 1D dose-response, calcium mobilization response (individual replicate): -21.027 and -38.068 and -44.01 and -38.887 and -46.292 and -51.601 and -47.998 and -19.021 and -24.245
MRGPRX4 (S83); Concentration 1.95313e-6 M
  Fig. 1D dose-response, calcium mobilization response (individual replicate): -34.306 and -12.488 and -34.424 and -46.421 and -44.65 and -42.861 and -53.58 and -51.620 and -38.055
MRGPRX4 (S83); Concentration 3.90625e-6 M
  Fig. 1D dose-response, calcium mobilization response (individual replicate): -45.647 and -46.32 and -35.376 and -38.61 and -34.811 and -45.234 and -56.373 and -60.668 and -3.309
MRGPRX4 (S83); Concentration 7.8125e-6 M
  Fig. 1D dose-response, calcium mobilization response (individual replicate): -36.025 and -46.229 and -47.556 and -37.359 and -53.743 and -48.739 and -48.609 and -47.284 and -56.875
MRGPRX4 (S83); Concentration 1.5625e-5 M
  Fig. 1D dose-response, calcium mobilization response (individual replicate): -54.866 and -50.537 and -42.313 and -47.552 and -53.2 and -55.3 and -57.812 and -33.441 and -66.652
MRGPRX4 (S83); Concentration 3.125e-5 M
  Fig. 1D dose-response, calcium mobilization response (individual replicate): -56.076 and -45.2 and -44.531 and -46.041 and -46.006 and -58.081 and -60.475 and -59.746 and -11.251
MRGPRX4 (S83); Concentration 6.25e-5 M
  Fig. 1D dose-response, calcium mobilization response (individual replicate): -51.427 and -36.666 and -43.901 and -55.62 and -42.251 and -57.261 and -57.456 and -8.995 and -73.787
MRGPRX4 (S83); Concentration 0.00025 M
  Fig. 1D dose-response, calcium mobilization response (individual replicate): -40.896 and -34.789 and -49.545 and -32.204 and -28.295 and -45.507 and -42.773 and -53.155 and -37.185
MRGPRX4 (S83); Concentration 0.0005 M
  Fig. 1D dose-response, calcium mobilization response (individual replicate): -3.046 and -9.71 and -33.403 and -15.448 and -3.273 and -16.368 and -26.248 and -13.645 and -6.391
MRGPRX4 (S83); Concentration 0.001 M
  Fig. 1D dose-response, calcium mobilization response (individual replicate): -8.458 and -6.416 and -11.748 and -15.382 and -27.522 and -19.884 and -14.893 and -13.481 and -19.179
